Results reported in publication PMC6155272, “Chroman-4-One Derivatives Targeting Pteridine Reductase 1 and Showing Anti-Parasitic Activity” (Molecules : A Journal of Synthetic Chemistry and Natural …, 2017).

Legend:
[1] = biological target: T1, Leishmania major pteridine reductase 1 (LmPTR1) (Leishmania major, UniProt Q01782); details: flavonols 1A–3A, cited from earlier work; for IC50: evaluated as in previous paper
T1 construct: made in house
T1 sequence (Q01782 1-288): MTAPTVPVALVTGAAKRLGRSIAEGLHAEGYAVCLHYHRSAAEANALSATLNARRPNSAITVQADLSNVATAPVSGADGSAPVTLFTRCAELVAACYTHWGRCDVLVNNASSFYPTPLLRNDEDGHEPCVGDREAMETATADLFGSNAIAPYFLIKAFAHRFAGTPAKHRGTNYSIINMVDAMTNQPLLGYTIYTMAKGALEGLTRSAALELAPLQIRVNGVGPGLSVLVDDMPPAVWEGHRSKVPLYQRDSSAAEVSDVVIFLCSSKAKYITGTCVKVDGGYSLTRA

[2] = biological target: T2, Trypanosoma brucei pteridine reductase 1 (TbPTR1) (Trypanosoma brucei brucei, UniProt O76290); details: flavonols 1A–3A, cited from earlier work; for IC50: evaluated as in previous paper
T2 construct: made in house
T2 sequence (O76290 1-268): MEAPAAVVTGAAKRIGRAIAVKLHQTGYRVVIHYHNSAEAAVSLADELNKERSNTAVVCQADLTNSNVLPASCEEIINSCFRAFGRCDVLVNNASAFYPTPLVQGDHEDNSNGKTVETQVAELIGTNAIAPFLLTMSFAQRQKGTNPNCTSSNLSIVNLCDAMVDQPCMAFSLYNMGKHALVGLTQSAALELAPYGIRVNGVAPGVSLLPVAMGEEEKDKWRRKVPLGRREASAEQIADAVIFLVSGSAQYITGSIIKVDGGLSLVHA

[3] = tested on: L. infantum (MHOM/BR/1972/BH46) intracellular amastigotes; assay: Activity against L. infantum intramacrophage amastigotes (high-content imaging); assay type: cell-based, Leishmania infantum; details: Leishmania infantum; read-out: IC50 (reference compound for L. infantum)
Experimental: […] THP-1 cells were plated onto 384-well plates in Roswell Park Memorial Institute (RPMI) 1640 medium, Hyclone, GE Healthcare Life Sciences (Issaquah, WA, USA) containing 50 ng/mL phorbol 12-myristate 13-acetate (PMA, Sigma-Aldrich, Saint Louis, MS, USA), and incubated for 48 h. Then, 6 day-old promastigotes were added, at a ratio of 50 parasites per each THP-1 cell seeded earlier. After 24 h of infection, negative controls (0.5% DMSO), positive controls (10 μM amphotericin B) or compounds were added to the plate. Assay plates were incubated for 48 h, and then fixed with 4% paraformaldehyde and stained with Draq 5. The Operetta high-content automated imaging system was used to acquire images and the Harmony Software was optimized to quantify the host cell number, the infection ratio and the number of parasites per infected cell. The ratio between infected cells and total number of cells is then calculated, and defined as the Infection Ratio (IR). The raw data for IR values was normalized to negative—DMSO (mock)-treated infected cells—and positive (non-infected cells) controls to determine the normalized antiparasitic activity.

[4] = tested on: T. brucei bloodstream forms; assay: Activity against T. brucei bloodstream forms (resazurin-based assay); assay type: cell-based, Trypanosoma brucei; details: Trypanosoma brucei; read-out: IC50 (reference compound for T. brucei)
Experimental: The efficacy of compounds against T. brucei bloodstream forms was evaluated using a modified resazurin-based assay previously described in literature.

[5] = biological target: T1, Leishmania major pteridine reductase 1 (LmPTR1); assay: LmPTR1 enzyme reporter assay (cytochrome-c reduction, 550 nm); assay type: biochemical; details: read-out: % Inhibition LmPTR1 (50 μM)
Experimental: (§1) TbPTR1 and LmPTR1 were purified as reported in literature. The enzyme kinetic profile of each selected protein was characterized by a spectrophotometric assay. The experimental assay consists of enzyme kinetic reaction monitoring at 340 nm for a total time of 180 s. The enzyme kinetic activity was measured at steady-state concentration of 7,8-dihydro-L-biopterin (H2B) and NADPH substrates equal to 50 and 120 µM and varying the enzyme concentration in the 0.001–0.006 µM and 0.005–0.010–0.015–0.020–0.025–0.030 µM range for Lm- and TbPTR1, respectively. The resulting kcat values were equal to 0.68 (s^−1) and 7.2 (s^−1) for Tb- and LmPTR1, respectively. For both TbPTR1 and LmPTR1, the Km value evaluation assay for H2B- and NADPH-substrates was performed in the 0.3-0.6–0.9–1.2–2.4–4.8 µM and 3.0–6.0–12.0–40.0–90.0–190.0 µM concentrations range, respectively.
(§2) Compounds 1A–3A were evaluated as reported in our previous paper. The novel synthesized compounds 1–3 were tested towards TbPTR1 and LmPTR1 using the in vitro TbPTR1/LmPTR1 enzyme reporter assay. The experimental procedure consists of monitoring the non-enzymatic reduction reaction of cytochrome-c at 550 nm, related to the reduction reaction of H2B to tetrahydrobiopterin (H4B) by using NADPH as the cofactor. TbPTR1 and LmPTR1 enzyme activity was assayed in a buffer containing 20 mM sodium citrate (pH 6.0) in a final experimental volume equal to 600 µL. The final reaction mixture contained different substrates added in the following order: TbPTR1/LmPTR1 (0.018 µM/0.002 µM) in 20 mM Tris-HCl, glycerol 10% (v/v), pH 7.5; H2B at a final concentration equal to 0.3 µM; cytochrome-c (80 µM); Milli-Q water to a final volume of 600 µL and NADPH to a final concentration of 500 µM. Before the addition of NADPH, the reaction mixture was incubated for 10 min at 30 °C and 80 RPM. To allow the starting of the reaction, NADPH was added and the enzyme reaction was detected for a total time of 10 min at 30 °C, 550 nm. The inhibition profile characterization of compounds 1–3 was performed with a DU-640 spectrophotometer (Beckman Coulter, Brea, CA, USA). Each compound was assayed in duplicate against Tb/LmPTR1 target enzymes in the 0–10–25–50–80–150 µM concentrations range. At the different concentration values, the compounds were added to the reaction mixture (enzyme, H2B, cytochrome-c in 20 mM sodium citrate buffer and Milli-Q water) and incubated for 10 min at 30 °C, 80 RPM. The reaction was initiated by the addition of NADPH (500 µM) and monitored for 10 min at 30 °C, 550 nm. The absorbance values were processed by software analysis and transformed into the corresponding slopes. The percentages of inhibition and the IC50 values were determined.

[6] = biological target: T2, Trypanosoma brucei pteridine reductase 1 (TbPTR1); assay: TbPTR1 enzyme reporter assay (cytochrome-c reduction, 550 nm); assay type: biochemical; details: read-out: % Inhibition TbPTR1 (50 μM), 50 μM; compounds 1–3 and control
Experimental: as §1, §2

[7] = biological target: the molecule itself; assay: crystal structure; TbPTR1-NADP+-compound 1 ternary complex; sitting drop, room temperature, 1.5-2.5 M sodium acetate, 0.1 M sodium citrate pH 5.0; compound soaked into pre-formed crystals; one homotetramer in the asymmetric unit
[8] = biological target: the molecule itself; assay: crystal structure; LmPTR1-NADP+ ternary complexes with compound 1 and with compound 3; hanging drop, 293 K, 12% PEG 4600, 100 mM sodium acetate pH 5.5, 120-160 mM calcium acetate; compounds soaked into pre-formed crystals; one homotetramer in the asymmetric unit

## O=c1c(O)c(-c2cccc(O)c2)oc2ccc(O)cc12 [Compound 1A]
[1]
  % Inhibition LmPTR1 (50 μM): 86.2%
  IC50: 12.5 µM
[2]
  % Inhibition TbPTR1 (50 μM): 96.1%
  IC50: 4.3 µM

## O=c1c(O)c(-c2ccc(O)cc2)oc2ccc(O)cc12 [Compound 2A]
[1]
  % Inhibition LmPTR1 (50 μM): 10.8%
[2]
  % Inhibition TbPTR1 (50 μM): 2.6%

## O=c1c(O)c(-c2ccc(O)c(O)c2)oc2ccc(O)cc12 [Compound 3A]
[1]
  % Inhibition LmPTR1 (50 μM): 75.4%
  IC50: 35 µM
[2]
  % Inhibition TbPTR1 (50 μM): 53.1%
  IC50: 38 µM

## CCCCCCCCCCCCCCCCOP(=O)([O-])OCC[N+](C)(C)C [miltefosine, reference compound]
[3]
  IC50: 2.65 ± 0.4 µM

## N=C(N)c1ccc(OCCCCCOc2ccc(C(=N)N)cc2)cc1 [pentamidine, reference compound]
[4]
  IC50: 0.00155 ± 0.00024 µM

## CCc1nc(N)nc(N)c1-c1ccc(Cl)cc1 [pyrimethamine, reference compound]
[5]
  inhibition at 50 µM: 100%
[6]
  inhibition at 50 µM: 100%

B1: Trypanosoma brucei pteridine reductase 1 (enzyme)
chain: MEAPAAVVTGAAKRIGRAIAVKLHQTGYRVVIHYHNSAEAAVSLADELNKERSNTAVVCQADLTNSNVLPASCEEIINSCFRAFGRCDVLVNNASAFYPTPLVQGDHEDNSNGKTVETQVAELIGTNAIAPFLLTMSFAQRQKGTNPNCTSSNLSIVNLCDAMVDQPCMAFSLYNMGKHALVGLTQSAALELAPYGIRVNGVAPGVSLLPVAMGEEEKDKWRRKVPLGRREASAEQIADAVIFLVSGSAQYITGSIIKVDGGLSLVHA
modifications: oxo-cysteine at residue 168
notes: pteridine reductase 1 (PTR1) of Trypanosoma brucei; Crystallised with the cofactor NADP+ and soaked with compound 1 (small molecules); also called TbPTR1; PTR1; source: expressed and purified as reported in literature [14]
[7]
  stoichiometry N: 4

B2: Leishmania major pteridine reductase 1 (enzyme)
chain: MTAPTVPVALVTGAAKRLGRSIAEGLHAEGYAVCLHYHRSAAEANALSATLNARRPNSAITVQADLSNVATAPVSGADGSAPVTLFTRCAELVAACYTHWGRCDVLVNNASSFYPTPLLRNDEDGHEPCVGDREAMETATADLFGSNAIAPYFLIKAFAHRFAGTPAKHRGTNYSIINMVDAMTNQPLLGYTIYTMAKGALEGLTRSAALELAPLQIRVNGVGPGLSVLVDDMPPAVWEGHRSKVPLYQRDSSAAEVSDVVIFLCSSKAKYITGTCVKVDGGYSLTRA
notes: pteridine reductase 1 (PTR1) of Leishmania major; Crystallised with NADPH/NADP+ and soaked with compound 1 or 3 (small molecules); also called LmPTR1; PTR1; source: expressed and purified as reported in literature [14]
[8]
  stoichiometry N: 4
